The values that follow come from patent US6525001B1, “Substituted pyrimidine and pyridine herbicides” (Mid-American Commercialization Corporation, priority 1997, dated 2003).

Common to all, as to format: in vivo
The test system of assay [1] is barnyardgrass (Echinochloa crus-galli). Nature of the assay: Test E pre-/postemergence/post directed. To be noted: PREEMERGENCE
Summed up: (§1)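 Greenhouse pot-grown plants; compound in non-phytotoxic solvent with surfactant applied preemergence to soil within one day of planting, postemergence at two to four leaf stage (three to twenty cm), or post-directed to plant base and soil. Visual injury rated 13 to 21 days after application, 0 (none) to 100 (complete control).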

Assay [2] relates to common groundsel (Senecio vulgaris). Nature of the assay: Test E pre-/postemergence/post directed. Further details: key: 0 is no injury; 100 is complete control. Summed up:
as §1

Assay [3] concerns alexandergrass (Brachiaria plantaginea). Nature of the assay: Test E pre-/postemergence/post directed. Details: key: 0 is no injury; 100 is complete control. To be noted: PREEMERGENCE
Summed up: as §1

Assay [4] deals with annual bluegrass (Poa annua). Description: Test D. To be noted: PREEMERGENCE
Details: key: 0 is no effect; 100 is complete control.

The test system of assay [5] is redroot pigweed (Amaranthus retroflexus). Nature of the assay: Test D. To be noted: PREEMERGENCE
In assay [6] the test system is black nightshade (Solanum nigra). Nature of the assay: Test D. Details: key: 0 is no effect; 100 is complete control. To be noted: PREEMERGENCE
For assay [7], the system named is scentless chamomile (Matricaria inodora). Nature of the assay: Test D. To be noted: PREEMERGENCE
In a further assay the test system is rape (Brassica napus). Description: Test D. Details: key: 0 is no effect; 100 is complete control. To be noted: PREEMERGENCE
Assay [8] concerns galium 2 (Galium aparine). Nature of the assay: Test D. Details: key: 0 is no effect; 100 is complete control. To be noted: PREEMERGENCE
Assay [9] concerns deadnettle (Lamium amplexicaule). Description: Test D. As to conditions: PREEMERGENCE
Assay [10] has as its system spring wheat (Triticum aestivum). Nature of the assay: Test D. Further details: key to Plant response rating, Spring Wheat: 0 is no effect. To be noted: PREEMERGENCE
The subject of assay [11] is lambsquarters (Chenopodium album). Nature of the assay: Test D. To be noted: POSTEMERGENCE
Details: key: 0 is no effect. The method, then: (§2) Compounds evaluated in this test were formulated in a non-phytotoxic solvent mixture which included a surfactant and applied to plants that were in the 1- to 4-leaf stage (postemergence application). A mixture of sandy loam soil and greenhouse potting mix in a 60:40 ratio was used for the postemergence test.
(§3) Plantings of these crops and weed species were adjusted to produce plants of appropriate size for the postemergence test. All plant species were grown using normal greenhouse practices. Crop and weed species include alfalfa (Medicago sativa), annual bluegrass (Poa annua), blackgrass (Alopecurus myosuroides), black nightshade (Solanum nigra), chickweed (Stellaria media), common poppy (Papaver rhoeas), deadnettle (Lamium amplexicaule), downy brome (Bromus tectorum), field violet (Viola arvensis), galium 2 (Galium aparine), green foxtail (Setaria viridis), Italian ryegrass (Lolium multiflorum), jointed goatgrass (Aegilops cylindrica), kochia (Kochia scoparia), lambsquarters (Chenopodium album), lentil (Lens culinaris), littleseed canarygrass (Phalaris minor), pea (Pisum sativum), potato (Solanum tuberosum), rape (Brassica napus), redroot pigweed (Amaranthus retroflexus), Russian thistle (Salsola kali), scentless chamomile (Matricaria inodora), sorghum (Sorghum vulgare), spring barley (Hordeum vulgare), sugar beet (Beta vulgaris), sunflower (Helianthus annuus), ivyleaf speedwell (Veronica hederaefolia), spring wheat (Triticum aestivum), winter wheat (Triticum aestivum), wild buckwheat (Polygonum convolvulus), wild mustard (Sinapis arvensis), wild oat (Avena fatua), windgrass (Apera spica-venti) and winter barley (Hordeum vulgare).
(§4) Treated plants and untreated controls were maintained in a greenhouse for approximately 21 to 28 days, after which all treated plants were compared to untreated controls and visually evaluated. Plant response ratings, summarized in Table D, are based upon a 0 to 100 scale where 0 is no effect and 100 is complete control. A dash response (−) means no test result.

The subject of assay [12] is wild buckwheat (Polygonum convolvulus). Description: Test D. Details: key: 0 is no effect; 10 is complete control. To be noted: POSTEMERGENCE
The method, then: as §2, §3, §4

The subject of a further assay is kochia (Kochia scoparia). Description: Test D. To be noted: POSTEMERGENCE
Details: key: 0 is no effect; 10 is complete control. The method, then:
as §2, §3, §4

In assay [13] the test system is redroot pigweed (Amaranthus retroflexus). Description: Test D. Further details: key: 0 is no effect; 10 is complete control. To be noted: POSTEMERGENCE
As for the experimental part:
as §2, §3, §4

For assay [14], the system named is galium 2 (Galium aparine). Description: Test D. Details: key: 0 is no effect; 10 is complete control. To be noted: POSTEMERGENCE
The method, then: as §2, §3, §4

In the case of `Cc1cnc(-c2ccc(C(F)(F)F)cc2)nc1Cc1cccc(OC(F)(F)F)c1` [Compound 15], the “Plant response rating, Barnyardgrass” value in assay [1] (Rate 125 g/ha) is listed as 40; in assay [1] (Rate 250 g/ha), 75. The “Plant response rating, Com. groundsel” value in assay [2] (POSTEMERGENCE, Rate 125 g/ha) is given as 0.

For the molecule `COc1cnc(-c2ccc(C(F)(F)F)cc2)nc1Cc1cccc(C(F)(F)F)c1` [Compound 23], the “Plant response rating, Alexandergrass” value in assay [3] (Rate 32 g/ha) and in [3] (Rate 64 g/ha) was 0 in each case.

Take `Cc1cnc(-n2cnc(C(F)(F)F)c2)nc1Cc1cccc(C(F)(F)F)c1` [Compound 44]: the “Plant response rating, Alexandergrass” value in assay [3] (Rate 32 g/ha) is 0.

For `CCc1cnc(-n2ccc(C(F)(F)F)n2)nc1Cc1cccc(C(F)(F)F)c1` [Compound 46], the “Plant response rating, Annual bluegras” value was 60 in assay [4] (Rate 31 g/ha) and 90 in assay [4] (Rate 62 g/ha). Also, the “Plant response rating, Redroot pigweed” value in [5] (Rate 31 g/ha) and in assay [5] (Rate 62 g/ha) was 70 throughout. For the same molecule, the “Plant response rating, Blk nightshade” value in assay [6] (Rate 31 g/ha) and in assay [6] (Rate 62 g/ha) was 50 each time. For the same molecule, the “Plant response rating, Scentless chamo” value in assay [7] (Rate 31 g/ha) came out at 65; in [7] (Rate 62 g/ha) it was 70. In addition, the “Plant response rating, Rape” value in the assay with rape (Brassica napus) (Rate 31 g/ha) is 50; in the assay with rape (Brassica napus) (Rate 62 g/ha) it was 100. Moreover, the “Plant response rating, Galium” value in assay [8] (Rate 31 g/ha) and in assay [8] (Rate 62 g/ha) was 60 in each case. Moreover, the “Plant response rating, Alexandergrass” value in assay [3] (Rate 32 g/ha) and in [3] (Rate 64 g/ha) was 0 throughout. The “Plant response rating, Deadnettle” value in assay [9] (Rate 31 g/ha) and in assay [9] (Rate 62 g/ha) was 90 in each case. The “Plant response rating, Spring Wheat” value is reported as 30 in [10] (Rate 31 g/ha) and 10 in assay [10] (Rate 62 g/ha).

As for `Cc1cnc(-n2cnc(C(F)(F)F)n2)nc1C(=O)c1cccc(C(F)(F)F)c1` [Compound 67], the “Plant response rating, Com. groundsel” value in assay [2] (PREEMERGENCE, Rate 32 g/ha) is listed as 0.

Regarding `Cc1cnc(-c2ccc(C(F)(F)F)cc2)nc1Cc1cccc(C(F)(F)F)c1` [Example 1, 5-methyl-2-[4-(trifluoromethyl)phenyl]-4-[[3-(trifluoromethyl)phenyl]methyl]pyrimidine], the “Plant response rating, Annual bluegras” value turned out to be 75 in assay [4] (Rate 31 g/ha), 60 in [4] (Rate 62 g/ha), 100 in assay [4] (Rate 125 g/ha) and 85 in assay [4] (Rate 250 g/ha). Further, the “Plant response rating, Redroot pigweed” value worked out at 75 in assay [5] (Rate 31 g/ha); 70 in assay [5] (Rate 62 g/ha); 75 in assay [5] (Rate 125 g/ha); 70 in [5] (Rate 250 g/ha); 0 in assay [13] (Rate 16 g/ha); 70 in [13] (Rate 31 g/ha). Besides, the “Plant response rating, Redroot pigweed” value in assay [13] (Rate 62 g/ha) is given as 70; in assay [13] (Rate 125 g/ha) it was 50. For the same molecule, the “Plant response rating, Blk nightshade” value in assay [6] (Rate 31 g/ha) turned out to be 55; in [6] (Rate 62 g/ha) it was 90; in assay [6] (Rate 125 g/ha), 100; in assay [6] (Rate 250 g/ha), 100. Moreover, the “Plant response rating, Scentless chamo” value in assay [7] (Rate 31 g/ha) is on record as 30; in assay [7] (Rate 62 g/ha), 70; in [7] (Rate 125 g/ha) it was 75; in assay [7] (Rate 250 g/ha), 85. In addition, the “Plant response rating, Lambsquarters” value came out at 0 in assay [11] (Rate 16 g/ha), 60 in assay [11] (Rate 31 g/ha), 60 in assay [11] (Rate 62 g/ha) and 50 in [11] (Rate 125 g/ha). In addition, the “Plant response rating, Wild buckwheat” value in assay [12] (Rate 16 g/ha) amounted to 0; in assay [12] (Rate 31 g/ha), 0; in assay [12] (Rate 62 g/ha), 0; in assay [12] (Rate 125 g/ha), 20. For the same molecule, the “Plant response rating, Kochia” value with kochia (Kochia scoparia) (Rate 16 g/ha) was 0; in the assay with kochia (Kochia scoparia) (Rate 31 g/ha), 60; in the assay with kochia (Kochia scoparia) (Rate 62 g/ha), 80; in the assay on kochia (Kochia scoparia) (Rate 125 g/ha), 70. The “Plant response rating, Galium” value is reported as 0 in assay [14] (Rate 16 g/ha); 60 in assay [14] (Rate 31 g/ha); 70 in [14] (Rate 62 g/ha); 70 in assay [14] (Rate 125 g/ha); 20 in assay [8] (Rate 31 g/ha); 100 in [8] (Rate 62 g/ha). Also, the “Plant response rating, Galium” value in assay [8] (Rate 125 g/ha) and in assay [8] (Rate 250 g/ha) was 100 each time. Also, the “Plant response rating, Rape” value was 30 with rape (Brassica napus) (Rate 31 g/ha), 75 in the assay with rape (Brassica napus) (Rate 62 g/ha), 100 with rape (Brassica napus) (Rate 125 g/ha) and 100 in the assay with rape (Brassica napus) (Rate 250 g/ha). Further, the entries for the “Plant response rating, Barnyardgrass” value in assay [1] (Rate 32 g/ha), in assay [1] (Rate 64 g/ha) and in assay [1] (Rate 125 g/ha) were 5, 70 and 80, respectively. Further, the “Plant response rating, Deadnettle” value in assay [9] (Rate 31 g/ha) was determined as 60; in [9] (Rate 62 g/ha), 65; in [9] (Rate 125 g/ha), 85; in assay [9] (Rate 250 g/ha), 90. The “Plant response rating, Spring Wheat” value in assay [10] (Rate 31 g/ha), in assay [10] (Rate 62 g/ha) and in [10] (Rate 125 g/ha) was 0 each time. Moreover, the “Plant response rating, Wheat (spring)” value in assay [10] (Rate 31 g/ha) was determined as 10; in [10] (Rate 62 g/ha) it was 10; in assay [10] (Rate 125 g/ha), 50; in [10] (Rate 250 g/ha), 30.

Turning to `Cc1cnc(-n2ccc(C(F)(F)F)n2)nc1Cc1cccc(C(F)(F)F)c1` [Example 2, 5-methyl-4-[[3-(trifluoromethyl)phenyl]methyl]-2-[3-(trifluoromethyl)-1H-pyrazol-1-yl]pyrimidine], the entries for the “Plant response rating, Barnyardgrass” value in assay [1] (Rate 32 g/ha) and in assay [1] (Rate 64 g/ha) were 20 and 95, respectively. For the same molecule, the “Plant response rating, Com. groundsel” value in assay [2] (POSTEMERGENCE, Rate 32 g/ha) is reported as 0.
